What was measured:
SNc dopaminergic neurons = experiment: MPTP-toxicity to SNc dopaminergic neurons, treatment started 24 hours after the last MPTP dose; assay type: in vivo, mouse (C57Bl/6); conditions: for dopaminergic axons in the striatum (TH staining): 20 mg/kg/day
Method: FIG. 29A and FIG. 29B. Neuroprotective efficacy of P7C3 and P7C3A20 from MPTP-toxicity to SNc dopaminergic neurons. FIG. 29A—Test compounds were evaluated by dose response assay for their ability to block MPTP-neurotoxicity in the SNc. […] VEH group contained 30 animals: 15 animals that received the P7C3A20/P7C3 vehicle, and 15 animals that received Dimebon vehicle (saline). […] Representative immunohistochemical pictures of TH-staining in the SNc are shown below the graph. Dosing is expressed as total mg/day, and was administered intraperitoneally in divided doses twice daily. Data are expressed as mean±SEM. […] P7C3A20 does so with greater effect, and Dimebon offers no protection. Striatal sections were obtained from the same mice used in FIG. 2, and compound treatment groups are from mice that received a dose of 20 mg/kg/d.
We compared the protective efficacy of our agents in the Tatton and Kish model of MPTP administration, which induces prolonged apoptotic death of SNc dopaminergic neurons lasting about 3 weeks after a short course of daily MPTP administration. Mice were treated daily for 5 days with 30 mg/kg/day free base MPTP. On the sixth day, 24 hours after receiving the fifth and final dose of MPTP, daily treatment with P7C3, P7C3A20, Dimebon or vehicle was initiated. […] Dose-response studies were conducted in which mice received twice daily doses of each compound (or vehicle) for the ensuing 21 days (FIG. 29A). […] At the end of the 21 day treatment period, mice were sacrificed by transcardial perfusion with 4% paraformaldehyde, and fixed brains were sectioned through the striatum and SNc at 30 μM intervals. Every fourth section (spaced 120 μM apart) was stained with antibodies specific to tyrosine hydroxylase (TH) (Abcam, rabbit anti-TH, 1:2500). The TH enzyme catalyzes the conversion of the amino acid L-tyrosine to L-3,4-dihydroxyphenylalanine (L-DOPA), which serves as the precursor for dopamine. TH staining thus provides a means to immunohistochemically identify dopaminergic neurons. By counting the number of TH+ cells in the SNc, we were able to assess the neuroprotective efficacy of the three chemicals following MPTP exposure. All microscopic analysis was performed by two investigators, blind to treatment group.
15 adult male C57Bl/6 mice were individually housed for one week and then injected daily for 5 days with 30 mg/kg/day (i.p.) free base MPTP (Sigma). On day 6, 24 hours after receiving the fifth and final dose of MPTP, daily treatment with P7C3, P7C3A20, Dimebon or vehicle was initiated. Mice were housed in disposable caging, and protective gear and precautions were implemented for handling MPTP in accordance with UT Southwestern Medical Center policy. Dose response studies were conducted in which mice received twice daily doses of each compound (or vehicle) by intraperitoneal injection for the following 21 days, after which mice were sacrificed by transcardial perfusion with 4% paraformaldehyde. Brains were dissected, fixed overnight in 4% paraformaldehyde, and cryoprotected in sucrose for freezing by standard procedures. Frozen brains were sectioned through the striatum and SNc at 30 uM intervals, and every fourth section (spaced 120 μM apart) was stained with antibodies directed against tyrosine hydroxylase (TH) (Abcam, rabbit anti-TH, 1:2500). Diaminobenzidine was used as a chromagen, and tissue was counter-stained with hematoxylin to aid in visualization of the neuroanatomy. Images were analyzed with a Nikon Eclipse 90i motorized research microscope with Plan Apo lenses coupled with Metamorph Image Acquisition software (Nikon). TH+ neurons were counted with Image J software (NIH) in every section by 2 blinded investigators and results were averaged and multiplied by the sectioning interval to determine the total number of TH+ neurons per SNc.

G93A-SOD1 mutant mice = experiment: Walking gait (pawprint analysis) in G93A-SOD1 mice, treatment from day 80; assay type: in vivo, mouse; conditions: 20 mg/kg/day from day 80
Method: FIG. 36A and FIG. 36B. P7C3A20 preserves walking gait when administered at the time of disease onset to G93A-SOD1 mutant mice. […] Front and back stride were collected as a straight line from back paw print to the following paw print. Back-front distance was collected as a straight line from back paw print to the corresponding front paw print. 20 measurements (10 on each side) for each parameter were measured per mouse, and 20 mice per group were evaluated at 90 and 118 day time points. All measurements were conducted blind to treatment group, and the student's t test was used for statistical comparison of a treatment group to its matched vehicle group. FIG. 36B—At 90 days, there were no differences between any groups in back stride, front stride and back-front distance. […] Back stride and front stride were preserved to near-normal levels in P7C3A20 treated mice on day 118. By day 132, P7C3 and Dimebon treated mice were too sick to participate in the task. At this time point, P7C3A20 treated mice continued to show normalized back stride and front stride levels.
Analysis of walking gait offers a second means of assessing motor limb strength and coordination in rodent models of ALS. We conducted this analysis in the same mice used for the accelerating rotarod task, at three time points: 90, 118 and 132 days. Briefly, the front paws of each test mouse were dipped in orange tempera paint, and the back paws in blue tempera paint. […] Key parameters of the pawprints were then manually measured, as described in Methods. […]
Five measurements were taken: front and back stride, front and back width, and front to back distance, as described in Current Protocols for Neuroscience. […] Width from paw print was measured by drawing a line at a 90 degree angle from the line connecting the stride previous and the paw being analyzed. The distance was recorded as length of line from paw to the stride line opposite the paw print. […]
Pawprints were recorded at 90, 118 and 132 days of age. […]

| SMILES | enhanced survival of TH+ SNc neurons over VEH (SNc dopaminergic neurons; 5 mg/kg/day for 21 days) | dopaminergic axons in the striatum (TH staining) (SNc dopaminergic neurons) | protection relative to vehicle (SNc dopaminergic neurons; 20 mg/kg/day for 21 days) [%] | walking gait (back stride, front stride, back-front distance) (G93A-SOD1 mutant mice) | activity in the MPTP protection assay (SNc dopaminergic neurons; new analogs, 10 mice for each compound) | onset of efficacy, over VEH (SNc dopaminergic neurons; 1 mg/kg/day for 21 days) [%] | number of dopaminergic neurons in the SNc relative to normal mice not exposed to MPTP (SNc dopaminergic neurons; 20 mg/kg/day for 21 days) | protection from MPTP (SNc dopaminergic neurons; any dose) |
| --- | --- | --- | --- | --- | --- | --- | --- | --- |
| OC(CNc1ccccc1)Cn1c2ccc(Br)cc2c2cc(Br)ccc21 (stereo not drawn) [Example P7C3] | about 40% | qualitatively notable protection | ~60 | none of these parameters in the walking gait analysis at 20 mg/kg/day were significantly improved | – | – | – | – |
| OC(CNc1cccc2ccccc12)Cn1c2ccc(Cl)cc2c2cc(Cl)ccc21 (stereo not drawn) [Example P7C3-S184] | – | – | – | – | inactive in both in vivo assays | – | – | – |
| COc1cccc(NCC(F)Cn2c3ccc(Br)cc3c3cc(Br)ccc32)c1 (stereo not drawn) [Example P7C3A20, N-(3-(3,6-dibromo-9H-carbazol-9-yl)-2-fluoropropyl)-3-methoxyaniline] | – | almost completely blocked depletion of dopaminergic axons in the striatum | – | helps preserve walking gait | – | 30 | about 85% | – |
| Cc1ccc2c(c1)c1c(n2CCc2ccc(C)nc2)CCN(C)C1 [Dimebon, 2,3,4,5-Tetrahydro-2,8-dimethyl-5-(2-(6-methyl-3-pyridyl)ethyl)-1H-pyrido(4,3-b)indole, reference compound] | – | offered no protection of dopaminergic axons in the striatum | – | none of these parameters in the walking gait analysis at 20 mg/kg/day were significantly improved | – | – | – | failed to confer any measurable degree of protection from MPTP at any dose |

Reference: patent US10183011B2, “Anti-depression compounds” (Board of Regents of the University of Texas System, priority 2009, dated 2019)
